Experimental data reported in patent US20120095032A1, “METHODS FOR TREATING LEUKEMIA AND MYELODYSPLASTIC SYNDROME, AND METHODS FOR IDENTIFYING AGENTS FOR TREATING SAME” (Sanford-Burnham Medical Research Institute, priority 2007, published 2012).

Tests used:
HePTP [1] = molecular target: T1, HePTP (Homo sapiens, UniProt P35236); assay: HePTP HTS primary screen (colorimetric pNPP / Biomol Green); assay type: biochemical; conditions: 20 μM compound; read-out: % Inhib. at 20 μM
T1 sequence (P35236 1-360): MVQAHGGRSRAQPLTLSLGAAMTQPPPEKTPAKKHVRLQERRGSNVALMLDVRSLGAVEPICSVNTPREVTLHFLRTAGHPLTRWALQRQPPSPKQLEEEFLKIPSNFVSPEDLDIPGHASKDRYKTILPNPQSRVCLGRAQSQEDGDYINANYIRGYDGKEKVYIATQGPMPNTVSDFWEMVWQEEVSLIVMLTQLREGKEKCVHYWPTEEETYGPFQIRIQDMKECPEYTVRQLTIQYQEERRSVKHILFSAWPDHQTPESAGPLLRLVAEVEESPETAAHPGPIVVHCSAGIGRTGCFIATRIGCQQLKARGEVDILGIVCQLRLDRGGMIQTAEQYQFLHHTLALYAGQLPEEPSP
From the text: (§1) The following assay can be conducted manually or can be carried out by a robotic station.
For this assay, HePTP catalyzes the following reaction:
wherein p-nitrophenyl phosphate serves as a substrate and is cleaved to form p-nitrophenol and phosphate. The liberated phosphate complexes with the Biomol Green™ reagent to provide a quantitative colorimetric value for the amount of substrate cleaved.
(§2) Compounds are then serially diluted in 100% DMSO, and then diluted with water to 10% final DMSO concentration.
(§3) The primary screening actives can then proceed to the dose-response confirmation stage.

HePTP [2] = molecular target: T1, HePTP; assay: HePTP dose-response confirmation screening; assay type: biochemical; conditions: for IC50: 10 concentrations, 2-fold serial dilution, pNPP substrate; for n / nH (Hill coefficient): Hill coefficient of the dose-response curve
From the text: as §1, §2, §3
* n represents the Hill coefficient. This coefficient is derived from the Hill equation which has the formula: […]
wherein θ is the fraction of ligand binding sites filled, L is the inhibitor concentration, Ka is the inhibitor concentration producing half occupation of the ligand binding sites, and n is the Hill coefficient.

Q: Which inhibition at 20 µM (HePTP [1]) does the source give for `Cc1ccc2c(c1C)NC(C(=O)O)C1CC=CC21` (stereo not drawn) [6,7-dimethyl-3a,4,5,9b-tetrahydro-3H-cyclopenta[c]quinoline-4-carboxylic acid] here?
A: The inhibition at 20 µM was 102%.

Q: What about the IC50 (HePTP [2]) of the same compound?
A: The IC50 was 2120 nM.

Q: What about the “n / nH (Hill coefficient)” value (HePTP [2]) of the same compound?
A: Its value is 2.01.

Q: For `O=C(O)c1c[nH]c2ccc(S(=O)(=O)N3CCN(c4ccc(F)cc4)CC3)cc2c1=O` [6-[4-(4-Fluorophenyl)piperazin-1-yl]sulfonyl-4-oxo-1H-quinoline-3-carboxylic acid], which inhibition at 20 µM (HePTP [1]) is on record?
A: The inhibition at 20 µM was 103%.

Q: What about the IC50 (HePTP [2]) of the same compound?
A: The IC50 was 4660 nM.

Q: What about the “n / nH (Hill coefficient)” value (HePTP [2]) of the same compound?
A: Its value is 2.66.

Q: Which results are given for `O=C(O)C1Nc2c(O)cccc2C2C=CCC12` (stereo not drawn) [6-hydroxy-3a,4,5,9b-tetrahydro-3H-cyclopenta[c]quinoline-4-carboxylic acid]?
A: inhibition at 20 µM (HePTP [1]): 103%; IC50 (HePTP [2]): 200 nM; n / nH (Hill coefficient) (HePTP [2]): 2.11

Q: Which results are given for `COc1cccc2c1NC(C(=O)O)C1CC=CC21` (stereo not drawn) [6-methoxy-3a,4,5,9b-tetrahydro-3H-cyclopenta[c]quinoline-4-carboxylic acid]?
A: inhibition at 20 µM (HePTP [1]): 103%; IC50 (HePTP [2]): 1280 nM; n / nH (Hill coefficient) (HePTP [2]): 1.54

Q: `CCOC(=O)c1ccc2c(c1)C1C=CCC1C(C(=O)O)N2` (stereo not drawn) [8-(ethoxycarbonyl)-3a,4,5,9b-tetrahydro-3H-cyclopenta[c]quinoline-4-carboxylic acid] was tested. Which inhibition at 20 µM (HePTP [1]) did it give?
A: Its inhibition at 20 µM is 103%.

Q: What about the IC50 (HePTP [2]) of the same compound?
A: The IC50 was 280 nM.

Q: What about the “n / nH (Hill coefficient)” value (HePTP [2]) of the same compound?
A: The value was 2.97.

Q: What does the source list for `O=C(Oc1ccccc1)c1ccc2c(c1)C1C=CCC1C(C(=O)O)N2` (stereo not drawn) [8-(phenoxycarbonyl)-3a,4,5,9b-tetrahydro-3H-cyclopenta[c]quinoline-4-carboxylic acid]?
A: inhibition at 20 µM (HePTP [1]): 96.4%; IC50 (HePTP [2]): 840 nM; n / nH (Hill coefficient) (HePTP [2]): 3.34

Q: With `Cc1ccc2c(c1)C1C=CCC1C(C(=O)O)N2` (stereo not drawn) [8-methyl-3a,4,5,9b-tetrahydro-3H-cyclopenta[c]quinoline-4-carboxylic acid] as the compound, how does the inhibition at 20 µM (HePTP [1]) read?
A: Its inhibition at 20 µM is 102%.

Q: What about the IC50 (HePTP [2]) of the same compound?
A: The IC50 was 410 nM.

Q: What about the “n / nH (Hill coefficient)” value (HePTP [2]) of the same compound?
A: Its value is 2.41.

Q: With `COc1ccc(OC)c(N2C(=O)[C@H]3C(c4ccccc4Cl)=NO[C@@H]3C2=O)c1` [(1S,5S)-2-(2-chlorophenyl)-7-(2,5-dimethoxyphenyl)-4-oxa-3,7-diazabicyclo[3.3.0]oct-2-ene-6,8-dione] as the compound, how does the inhibition at 20 µM (HePTP [1]) read?
A: The inhibition at 20 µM was 85.1%.

Q: And the IC50 (HePTP [2])?
A: Its IC50 is 8250 nM.

Q: What about the “n / nH (Hill coefficient)” value (HePTP [2]) of the same compound?
A: Its value is 2.27.

Q: With `C/C(N)=C(\C#N)C(=O)CSc1nnc(Nc2c(C)cccc2C)s1` [(Z)-3-Amino-2-[2-[[5-[(2,6-dimethylphenyl)amino]-1,3,4-thiadiazol-2-yl]sulfanyl]acetyl]but-2-enenitrile] as the compound, how does the inhibition at 20 µM (HePTP [1]) read?
A: The inhibition at 20 µM was 77.9%.

Q: What about the IC50 (HePTP [2]) of the same compound?
A: Its IC50 is 30200 nM.

Q: And the “n / nH (Hill coefficient)” value (HePTP [2])?
A: The value was 2.66.

Q: `CCCCC[C@H](O)/C=C/[C@H]1C=CC(=O)[C@@H]1C/C=C\CCCC(=O)O` [(Z)-7-[(1R,2S)-2-[(E,3S)-3-Hydroxyoct-1-enyl]-5-oxo-1-cyclopent-3-enyl]hept-5-enoic acid] was tested. Which inhibition at 20 µM (HePTP [1]) did it give?
A: The inhibition at 20 µM was 57.3%.

Q: What about the IC50 (HePTP [2]) of the same compound?
A: The IC50 was 13700 nM.

Q: What about the “n / nH (Hill coefficient)” value (HePTP [2]) of the same compound?
A: The value was 2.49.

Q: How did the inhibition at 20 µM (HePTP [1]) turn out when `CCOC(=O)C1CCN(C(=O)Nc2ccc3nc(-c4ccco4)c(-c4ccco4)nc3c2)CC1` [Ethyl 1-[[2,3-bis(2-furyl)quinoxalin-6-yl]carbamoyl]piperidine-4-carboxylate] was run?
A: Its inhibition at 20 µM is 103%.

Q: And the IC50 (HePTP [2])?
A: Its IC50 is 1120 nM.

Q: What about the “n / nH (Hill coefficient)” value (HePTP [2]) of the same compound?
A: The value was 1.95.

Q: What does the source list for `CCOC(=O)C(C)Sc1nc2c(c(=O)[nH]c(=O)n2C)n1C/C=C(/C)Cl` (stereo not drawn) [Ethyl 2-[7-[(Z)-3-Chlorobut-2-enyl]-3-methyl-2,6-dioxo-purin-8-yl]sulfanylpropanoate]?
A: inhibition at 20 µM (HePTP [1]): 55.4%; IC50 (HePTP [2]): 8330 nM; n / nH (Hill coefficient) (HePTP [2]): 1.44

Q: How did the inhibition at 20 µM (HePTP [1]) turn out when `COC(=O)c1ccccc1NC(=O)c1noc2ccccc12` [Methyl 2-(4-oxa-3-azabicyclo[3.3.0]octa-2,9-diene-2-carbonylamino)benzoate] was run?
A: Its inhibition at 20 µM is 81.2%.

Q: And the IC50 (HePTP [2])?
A: Its IC50 is 2330 nM.

Q: And the “n / nH (Hill coefficient)” value (HePTP [2])?
A: The value was 1.45.

Q: With `Cc1cc(NC(=O)Cc2cccs2)no1` [N-(5-methyl-1,2-oxazol-3-yl)-2-thiophen-2-ylacetamide] as the compound, how does the inhibition at 20 µM (HePTP [1]) read?
A: The inhibition at 20 µM was 99.7%.

Q: What about the IC50 (HePTP [2]) of the same compound?
A: The IC50 was 700 nM.

Q: And the “n / nH (Hill coefficient)” value (HePTP [2])?
A: The value was 2.49.

Q: With `O=C(NCc1ccco1)c1c2c(nc3ccccc13)CCC2` [N-(Furan-2-ylmethyl)-2,3-dihydro-1h-cyclopenta[b]quinoline-9-carboxamide;] as the compound, how does the inhibition at 20 µM (HePTP [1]) read?
A: The inhibition at 20 µM was 62%.

Q: What about the IC50 (HePTP [2]) of the same compound?
A: The IC50 was 4630 nM.

Q: And the “n / nH (Hill coefficient)” value (HePTP [2])?
A: Its value is 1.52.

Q: Which inhibition at 20 µM (HePTP [1]) does the source give for `Cn1cnnc1SCC(=O)Nc1sc2c(c1C(=O)ON)CCC2` [N-[3-(aminooxycarbonyl)-5,6-dihydro-4H-cyclopenta[b]thiophen-2-yl]-2-(4-methyl-4H-1,2,4-triazol-3-ylthio)acetamide] here?
A: The inhibition at 20 µM was 90.2%.

Q: What about the IC50 (HePTP [2]) of the same compound?
A: Its IC50 is 2430 nM.

Q: And the “n / nH (Hill coefficient)” value (HePTP [2])?
A: The value was 2.33.

Q: With `CCc1ccc(OCC(=O)NC2=CC(=O)/C(=C3/Nc4ccccc4O3)C=C2)cc1` [N-[(4Z)-4-(3H-Benzooxazol-2-ylidene)-3-oxo-1-cyclohexa-1,5-dienyl]-2-(4-ethylphenoxy)acetamide] as the compound, how does the inhibition at 20 µM (HePTP [1]) read?
A: The inhibition at 20 µM was 59%.

Q: What about the IC50 (HePTP [2]) of the same compound?
A: The IC50 was 5280 nM.

Q: What about the “n / nH (Hill coefficient)” value (HePTP [2]) of the same compound?
A: Its value is 0.29.

Q: `COc1ccc(Cc2nnc(NC(=O)Cc3cccs3)s2)cc1` [N-{5-[(4-methoxyphenyl)methyl]-1,3,4-thiadiazol-2-yl}-2-thiophen-2-ylacetamide] was tested. Which inhibition at 20 µM (HePTP [1]) did it give?
A: Its inhibition at 20 µM is 103%.

Q: And the IC50 (HePTP [2])?
A: Its IC50 is 4020 nM.

Q: What about the “n / nH (Hill coefficient)” value (HePTP [2]) of the same compound?
A: The value was 2.33.

Q: Which results are given for `CC(=O)OCC1=C(C(=O)[O-])N2C(=O)[C@H](NC(=O)Cc3cccs3)[C@H]2SC1.[Na+]` [Sodium (6R,7S)-3-(acetyloxymethyl)-8-oxo-7-[(2-thiophen-2-ylacetyl)amino]-5-thia-1-azabicyclo[4.2.0]oct-2-ene-2-carboxylate]?
A: inhibition at 20 µM (HePTP [1]): 96.2%; IC50 (HePTP [2]): 920 nM; n / nH (Hill coefficient) (HePTP [2]): 1.12

Q: Which inhibition at 20 µM (HePTP [1]) does the source give for `Cn1nnnc1SCC1=C(C(=O)[O-])N2C(=O)[C@H](NC(=O)[C@H](O)c3ccccc3)[C@H]2SC1.[Na+]` [Sodium (6R,7S)-7-[[(2R)-2-hydroxy-2-phenyl-acetyl]amino]-3-[(1-methyltetrazol-5-yl)sulfanylmethyl]-8-oxo-5-thia-1-azabicyclo[4.2.0]oct-2-ene-2-carboxylate] here?
A: Its inhibition at 20 µM is 98%.

Q: What about the IC50 (HePTP [2]) of the same compound?
A: The IC50 was 100 nM.

Q: What about the “n / nH (Hill coefficient)” value (HePTP [2]) of the same compound?
A: The value was 0.6.

Q: How did the inhibition at 20 µM (HePTP [1]) turn out when `CC(C)Cn1c(N)c(C(=O)COC(=O)c2cc(-c3ccco3)nc3ccccc23)c(=O)n(C)c1=O` [[2-[4-Amino-1-methyl-3-(2-methylpropyl)-2,6-dioxo-pyrimidin-5-yl]-2-oxo-ethyl] 2-(2-furyl)quinoline-4-carboxylate] was run?
A: The inhibition at 20 µM was 89.7%.

Q: What about the IC50 (HePTP [2]) of the same compound?
A: Its IC50 is 5270 nM.

Q: And the “n / nH (Hill coefficient)” value (HePTP [2])?
A: The value was 2.48.

Q: For `COc1ccc(C(=O)c2no[n+]([O-])c2C(=O)c2ccc(OC)cc2)cc1` [[4-(4-Methoxybenzoyl)-2-oxido-1-oxa-5-aza-2-azoniacyclopenta-2,4-dien-3-yl]-(4-methoxyphenyl)methanone], which inhibition at 20 µM (HePTP [1]) is on record?
A: The inhibition at 20 µM was 86.3%.

Q: What about the IC50 (HePTP [2]) of the same compound?
A: Its IC50 is 11300 nM.

Q: And the “n / nH (Hill coefficient)” value (HePTP [2])?
A: Its value is 0.45.

Q: Which results are given for `CC(C)CN(C(=O)COC(=O)c1cc2c(s1)CCC2)C1CCS(=O)(=O)C1` (stereo not drawn) [[(1,1-Dioxothiolan-3-yl)-(2-methylpropyl)carbamoyl]methyl 4-thiabicyclo[3.3.0]octa-2,9-diene-3-carboxylate]?
A: inhibition at 20 µM (HePTP [1]): 58.7%; IC50 (HePTP [2]): 1210 nM; n / nH (Hill coefficient) (HePTP [2]): 1.52
